Values quoted from earlier work, collected in patent publication US7996156B2, “Methods for predicting properties of molecules” (priority 2002, dated 2011).

Biological target: T1, aromatase enzyme (Homo sapiens, UniProt P11511)
T1 sequence (P11511 1-503): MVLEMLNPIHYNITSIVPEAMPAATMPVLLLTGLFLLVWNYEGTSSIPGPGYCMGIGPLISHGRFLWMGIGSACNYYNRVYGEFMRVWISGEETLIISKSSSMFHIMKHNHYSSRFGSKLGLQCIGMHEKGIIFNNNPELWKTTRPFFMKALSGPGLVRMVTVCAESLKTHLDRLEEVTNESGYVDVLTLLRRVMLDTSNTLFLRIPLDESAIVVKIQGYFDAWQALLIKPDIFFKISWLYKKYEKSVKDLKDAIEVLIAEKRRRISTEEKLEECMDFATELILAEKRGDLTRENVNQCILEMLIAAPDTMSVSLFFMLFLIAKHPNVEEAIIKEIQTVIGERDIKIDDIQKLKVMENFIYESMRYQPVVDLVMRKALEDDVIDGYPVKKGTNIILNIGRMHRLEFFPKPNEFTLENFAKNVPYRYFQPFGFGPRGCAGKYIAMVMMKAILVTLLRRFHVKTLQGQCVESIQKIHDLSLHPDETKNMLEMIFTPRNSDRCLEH
Settings: 50 steroids of Table 8; cited from earlier work

SMILES: C/C=C1\CC2C(CC[C@]3(C)C(=O)CCC23)[C@@]2(C)CCC(=O)C=C12 (stereo partly shown) [compound 50]
- Binding (experimental binding data, aromatase enzyme): 0.96
